The values that follow come from ChEMBL document CHEMBL5728717, “Amino pyrimidine compound for inhibiting protein tyrosine kinase activity” (2021).

This experiment has as its target Epidermal growth factor receptor (Homo sapiens, UniProt P00533). In words: Kinase Inhibition Assay: Reagents and Materials:WT EGFR (Carna, Cat. No. 08-115), EGFR [L858R] (Carna, Cat. No. 08-502), EGFR [L858R/T790M] (Carna, Cat. No. 08-510), ATP (Sigma, Cat. No. A7699-1G), DMSO (Sigma, Cat. No. D2650), 96-well plate (Corning, Cat. No. 3365), 384-well plate (Greiner, Cat. No. 784076), HTRF Kinase TK Kit (Cisbio, Cat. No. 62TK0PEJ), Erlotinib (Selleckchem, Cat. No. S7787) …. (In general: TR-FRET usually uses a lanthanide donor and a delayed reading to cut background.)

Chain of Epidermal growth factor receptor (P00533 25-1210 limits assumed, stated change not applied): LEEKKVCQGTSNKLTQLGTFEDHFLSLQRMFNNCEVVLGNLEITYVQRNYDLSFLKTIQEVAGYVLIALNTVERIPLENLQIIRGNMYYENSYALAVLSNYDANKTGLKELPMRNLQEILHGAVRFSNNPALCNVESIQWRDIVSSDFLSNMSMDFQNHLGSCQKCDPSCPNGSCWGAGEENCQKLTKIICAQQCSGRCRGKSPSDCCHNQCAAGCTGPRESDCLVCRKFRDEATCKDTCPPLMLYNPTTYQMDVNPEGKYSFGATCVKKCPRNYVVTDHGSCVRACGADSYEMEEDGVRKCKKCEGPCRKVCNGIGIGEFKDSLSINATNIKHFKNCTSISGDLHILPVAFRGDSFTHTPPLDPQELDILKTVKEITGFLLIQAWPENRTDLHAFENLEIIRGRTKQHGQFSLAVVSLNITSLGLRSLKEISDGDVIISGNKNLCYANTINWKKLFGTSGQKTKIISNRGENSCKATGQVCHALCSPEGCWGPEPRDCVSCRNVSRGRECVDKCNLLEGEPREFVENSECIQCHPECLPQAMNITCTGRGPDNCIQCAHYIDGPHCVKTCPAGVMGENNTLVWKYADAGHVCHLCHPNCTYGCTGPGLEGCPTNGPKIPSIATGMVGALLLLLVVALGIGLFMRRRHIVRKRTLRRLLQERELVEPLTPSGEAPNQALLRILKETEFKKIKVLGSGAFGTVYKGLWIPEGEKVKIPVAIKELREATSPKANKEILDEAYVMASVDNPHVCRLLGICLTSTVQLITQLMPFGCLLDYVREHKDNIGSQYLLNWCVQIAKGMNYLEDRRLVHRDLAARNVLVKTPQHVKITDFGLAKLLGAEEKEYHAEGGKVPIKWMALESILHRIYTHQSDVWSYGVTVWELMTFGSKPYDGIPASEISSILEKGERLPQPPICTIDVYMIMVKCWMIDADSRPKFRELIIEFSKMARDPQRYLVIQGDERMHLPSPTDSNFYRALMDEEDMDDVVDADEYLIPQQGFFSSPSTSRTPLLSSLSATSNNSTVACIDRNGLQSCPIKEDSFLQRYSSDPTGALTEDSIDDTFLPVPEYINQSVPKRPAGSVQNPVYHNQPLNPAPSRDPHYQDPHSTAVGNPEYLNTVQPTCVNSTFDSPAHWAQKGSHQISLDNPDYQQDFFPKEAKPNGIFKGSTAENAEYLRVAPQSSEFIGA
Description: Then, it was diluted in DMSO with a 3-fold series gradient dilution for 10 times. […] The corresponding substrate and ATP were added and reacted at room temperature for 20 minutes (in which a negative and a positive control were set: the negative control is blank and the positive control is erlotinib). […] The inhibitions of the enzyme activity by the compounds at different concentrations were then fitted using Graphpad 5.0 software according to the four-parameter equation, and the IC50 values were calculated.

The term IC50 denotes the concentration at which inhibition is half-maximal. Read a low IC50 as inhibition by little substance. Compound `C=CC(=O)Nc1cc(Nc2nccc(-c3cc(F)c4nc(C)n(C(C)C)c4c3)n2)c(OC)cc1N1CCC(OC)CC1` registered an IC50 of over 100 nM.
